Laboratory results reported in publication PMC5164969 (Bioorganic & medicinal chemistry, 2016).
Values after ≈ are worked out from the molar mass of the structure shown.

Experiments:
E. coli MC1061 = assay: Antibacterial MIC; type: cell-based; details: Escherichia coli
[1] = test system: methicillin-resistant Staphylococcus aureus (MRSA); assay: Antibacterial MIC; type: cell-based
B. subtilis 168 = assay: Antibacterial MIC; type: cell-based; details: Bacillus subtilis
[2] = test system: panel of Gram-positive, Gram-negative and mycobacterial strains; assay: Antibacterial MIC, summary over the panel of bacterial strains; type: cell-based; details: all bacterial strains tested
VRE = type: cell-based, enterococcus; details: strain D (VRE), 15 serial passages
P. aeruginosa ATCC 27853 [3] = type: cell-based; details: strain I (Pae); for development of resistance (passage after which resistance developed): 15 serial passages
[4] = test system: L. monocytogenes ATCC 19115; assay: Antibacterial MIC; type: cell-based; details: Listeria monocytogenes, ATCC19115
MRSA = type: cell-based, Staphylococcus aureus; details: strain C (MRSA), 15 serial passages
[5] = test system: L. monocytogenes ATCC 19115; type: cell-based, Listeria monocytogenes; details: strain B (Lmo), 15 serial passages
K. pneumoniae ATCC 27736 = assay: Antibacterial MIC; type: cell-based; details: Klebsiella pneumoniae, ATCC27736
P. aeruginosa ATCC 27853 [6] = assay: Antibacterial MIC; type: cell-based; details: Pseudomonas aeruginosa, ATCC27853
E. cloacae ATCC 13047 = assay: Antibacterial MIC; type: cell-based; details: Enterobacter cloacae, ATCC13047
[7] = Mammalian cell cytotoxicity, summary over both cell lines; type: cell-based; details: human, A549 cells and BEAS-2B cells
[8] = test system: seven Candida albicans strains; assay: Antifungal MIC, summary over the panel of seven strains; type: cell-based; details: most of the fungal strains tested / overall
hERG channel = hERG channel (Homo sapiens, UniProt Q12809); type: binding; details: class by IC50
C. albicans ATCC 10231 [9] = type: cell-based, Candida albicans; details: C. albicans ATCC 10231, repeated treatments with sub-MIC drug concentrations
C. albicans ATCC 10231 [10] = assay: Intracellular ROS production, DCFH-DA fluorescence assay; type: cell-based, Candida albicans; details: 1 h at 35 °C, DCFH-DA staining
[11] = test system: vancomycin-resistant enterococcus (VRE); assay: Antibacterial MIC; type: cell-based
C. albicans ATCC 90819 = assay: Antifungal MIC; type: cell-based; details: Candida albicans, ATCC90819
C. albicans ATCC 64124 = assay: Antifungal MIC; type: cell-based; details: Candida albicans, ATCC64124

hERG channel, sequence (Q12809 whole entry): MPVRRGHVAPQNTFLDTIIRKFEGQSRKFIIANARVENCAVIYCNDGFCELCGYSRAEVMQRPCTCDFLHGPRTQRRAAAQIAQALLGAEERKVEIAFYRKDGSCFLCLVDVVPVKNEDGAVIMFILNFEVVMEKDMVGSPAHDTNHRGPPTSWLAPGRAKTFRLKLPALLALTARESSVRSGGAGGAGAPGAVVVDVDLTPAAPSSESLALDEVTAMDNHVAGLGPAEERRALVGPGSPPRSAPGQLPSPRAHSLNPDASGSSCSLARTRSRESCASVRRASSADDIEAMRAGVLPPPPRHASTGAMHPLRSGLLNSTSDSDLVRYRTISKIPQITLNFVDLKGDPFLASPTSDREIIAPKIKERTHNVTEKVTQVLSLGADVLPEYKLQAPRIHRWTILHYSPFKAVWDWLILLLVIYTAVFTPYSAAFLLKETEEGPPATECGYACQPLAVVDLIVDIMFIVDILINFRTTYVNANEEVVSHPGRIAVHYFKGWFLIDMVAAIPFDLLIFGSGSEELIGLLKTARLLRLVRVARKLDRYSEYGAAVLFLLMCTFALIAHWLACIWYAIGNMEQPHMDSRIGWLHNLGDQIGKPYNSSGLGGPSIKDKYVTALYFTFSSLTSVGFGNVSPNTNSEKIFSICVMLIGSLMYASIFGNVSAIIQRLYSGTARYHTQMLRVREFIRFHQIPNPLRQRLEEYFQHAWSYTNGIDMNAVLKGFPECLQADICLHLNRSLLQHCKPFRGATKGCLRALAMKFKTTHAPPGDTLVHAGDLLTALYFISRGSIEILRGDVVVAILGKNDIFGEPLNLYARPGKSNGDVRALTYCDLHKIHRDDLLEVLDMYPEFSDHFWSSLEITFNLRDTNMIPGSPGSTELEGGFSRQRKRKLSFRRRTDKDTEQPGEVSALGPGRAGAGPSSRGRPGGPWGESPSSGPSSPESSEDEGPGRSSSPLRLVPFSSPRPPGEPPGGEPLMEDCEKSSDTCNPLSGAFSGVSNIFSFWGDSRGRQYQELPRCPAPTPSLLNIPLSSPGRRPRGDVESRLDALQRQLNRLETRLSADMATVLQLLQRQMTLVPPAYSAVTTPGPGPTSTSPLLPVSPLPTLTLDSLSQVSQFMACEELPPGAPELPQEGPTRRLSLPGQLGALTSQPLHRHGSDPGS

C/C(=N\NC(=N)N)c1cccc(/C(C)=N/NC(=N)N)c1.Cl.Cl [Compound 4H] gave an MIC (E. coli MC1061) greater than 173 µg/mL.
In the case of C/C(=N\NC(=N)N)c1ccc(Oc2ccc(/C(C)=N/NC(=N)N)cc2)cc1.Cl.Cl [Compound 4E], the MIC [1] is reported as 54.9 µg/mL, the MIC (E. coli MC1061) is reported as 54.9 µg/mL and the MIC (B. subtilis 168) is reported as 54.9 µg/mL.
In the case of NCC[C@H](O)C(=O)N[C@@H]1C[C@H](N)[C@@H](O[C@H]2O[C@H](CN)[C@@H](O)[C@H](O)[C@H]2O)[C@H](O)[C@H]1O[C@H]1O[C@H](CO)[C@@H](O)[C@H](N)[C@H]1O [AMK, amikacin, reference compound], the “MIC, range over bacterial strains tested” value [2] is reported as 3.9 to 125 µM, the MIC [1] is reported as 24.5 µg/mL (≈ 41.8 µM) and the MIC (E. coli MC1061) is reported as 24.5 µg/mL (≈ 41.8 µM). The “development of resistance (passage after which resistance developed)” value (shortened to “development of resistance”) (VRE) was 3 passages, the “development of resistance” value (P. aeruginosa ATCC 27853 [3]) was 5 passages and the MIC [4] was 3 µg/mL (≈ 5.12 µM). The “development of resistance” value (MRSA) was 12 passages, the “development of resistance” value [5] was 15 passages and the MIC (K. pneumoniae ATCC 27736) was 24.5 µg/mL (≈ 41.8 µM).
Molecule C/C(=N\NC(=N)N)c1ccc(Cc2ccc(/C(C)=N/NC(=N)N)cc2)cc1.Cl.Cl [Compound 4C] has an MIC (E. coli MC1061) greater than 219 µg/mL.
Work on C/C(=N\NC(=N)N)c1ccc(-c2ccc(/C(C)=N/Nc3ccccc3Cl)cc2)cc1.Cl [Compound 8Aa] yielded an MIC (E. coli MC1061) of 213 µg/mL, an MIC (P. aeruginosa ATCC 27853 [6]) of 213 µg/mL and an MIC (E. cloacae ATCC 13047) of 213 µg/mL.
In the case of CC1(C)S[C@@H]2[C@H](NC(=O)[C@H](N)c3ccccc3)C(=O)N2[C@H]1C(=O)O [AMP, ampicillin, reference compound], the “MIC, range over bacterial strains tested” value [2] is reported as no less than 250 µM and the MIC (E. coli MC1061) is reported as greater than 92.8 µg/mL.
With Cl.N=C(N)N/N=C/c1ccc(-c2ccc(/C=N/Nc3ccc(F)cc3F)cc2)cc1 [Compound 7Af] the MIC (E. coli MC1061) was greater than 214 µg/mL, the IC50 [7] was 4.4 to 13.9 µg/mL and the “antifungal activity (class)” value [8] was “excellent (excellent (MIC = 0.5-3.9 μg/mL))”. For the same molecule, the “affinity for / interaction with hERG (class)” value (“affinity for / interaction” for short) (hERG channel) was “moderate (IC50 values in the range of 1-10 μM are considered to have moderate affinity)”.
With CC1COc2c(N3CCN(C)CC3)c(F)cc3c(=O)c(C(=O)O)cn1c23 (stereo not shown) [OFX, ofloxacin, reference compound] the “MIC, range over bacterial strains tested” value [2] was no more than 0.5 to 31.3 µM and the MIC (E. coli MC1061) was 1.4 to 2.8 µg/mL (≈ 3.87 to 7.75 µM).
In the case of C/C(=N\NC(=N)N)c1ccc2c(c1)Cc1cc(/C(C)=N/NC(=N)N)ccc1-2.Cl.Cl [Compound 4F], the MIC (E. coli MC1061) is reported as 218 µg/mL, the “development of resistance” value (VRE) is reported as “did not develop resistance” and the “development of resistance” value (P. aeruginosa ATCC 27853 [3]) is reported as “did not develop resistance”. For the same molecule, the MIC (E. cloacae ATCC 13047) was 218 µg/mL, the “development of drug resistance” value (C. albicans ATCC 10231 [9]) was “did not to develop drug resistance” and the “intracellular ROS production” value (C. albicans ATCC 10231 [10]; 1× and 2× MIC) was “increased intracellular ROS production”. The “development of resistance” value (MRSA) was “did not develop resistance”, the “development of resistance” value [5] was “did not develop resistance” and the “affinity for / interaction” value (hERG channel) was “moderate (IC50 values in the range of 1-10 μM are considered to have moderate affinity)”.
Molecule C/C(=N\NC(=N)N)c1ccc(/C(C)=N/NC(=N)N)cc1.Cl.Cl [Compound 4G] has an MIC (E. coli MC1061) greater than 173 µg/mL.
In the case of Cl.N=C(N)N/N=C/c1ccc(-c2ccc(/C=N/Nc3ccccc3Cl)cc2)cc1 [Compound 7Aa], the MIC [1] is reported as 0.9 µg/mL, the MIC [11] is reported as 0.9 µg/mL and the MIC (E. coli MC1061) is reported as greater than 215 µg/mL. For the same molecule, the “development of resistance” value (VRE) was “did not develop resistance”, the “development of resistance” value (P. aeruginosa ATCC 27853 [3]) was “twelve” and the MIC (P. aeruginosa ATCC 27853 [6]) was greater than 215 µg/mL. For the same molecule, the MIC (E. cloacae ATCC 13047) was greater than 215 µg/mL, the MIC (B. subtilis 168) was greater than 215 µg/mL and the MIC [4] was 0.4 to 0.9 µg/mL. For the same molecule, the “development of drug resistance” value (C. albicans ATCC 10231 [9]) was “did not to develop drug resistance”, the “intracellular ROS production” value (C. albicans ATCC 10231 [10]; 1× and 2× MIC) was “increased intracellular ROS production” and the “development of resistance” value (MRSA) was “twelve”. For the same molecule, the “development of resistance” value [5] was “did not develop resistance”, the MIC (K. pneumoniae ATCC 27736) was greater than 215 µg/mL and the “affinity for / interaction” value (hERG channel) was “moderate (IC50 values in the range of 1-10 μM are considered to have moderate affinity)”.
With Cl.N=C(N)N/N=C/c1ccc(-c2ccc(/C=N/Nc3ccc(Cl)cc3Cl)cc2)cc1 [Compound 7Ag] the MIC (E. coli MC1061) was greater than 231 µg/mL.
With C/C(=N\NC(=N)N)c1ccc(CCc2ccc(/C(C)=N/NC(=N)N)cc2)cc1.Cl.Cl [Compound 4D] the MIC (E. coli MC1061) was greater than 226 µg/mL and the “increase in MIC values” (P. aeruginosa ATCC 27853 [3]; after 15 serial passages at sub-inhibitory concentrations) was 4 fold.
In the case of Cl.N=C(N)N/N=C/c1ccc(-c2ccc(/C=N/Nc3ccc(Cl)cc3)cc2)cc1 [Compound 7Ad], the MIC (E. coli MC1061) is reported as greater than 214 µg/mL and the IC50 [7] is reported as 4.4 to 13.9 µg/mL.
In the case of Cl.Cl.N=C(N)N/N=C/c1ccc(-c2cccc(/C=N/NC(=N)N)c2)cc1 [Compound 3B], the MIC (E. coli MC1061) is reported as greater than 198 µg/mL and the IC50 [7] is reported as 4.4 to 13.9 µg/mL.
Molecule Cl.N=C(N)N/N=C/c1ccc(-c2ccc(/C=N/Nc3ccccc3Br)cc2)cc1 [Compound 7Ab] has an MIC (E. coli MC1061) greater than 235 µg/mL.
With Cl.Cl.N=C(N)N/N=C/c1ccc(-c2ccc(/C=N/NC(=N)N)cc2)cc1 [Compound 3A] the MIC (E. coli MC1061) was greater than 198 µg/mL.
For OO [Compound H2O2, H2O2, reference compound], the “intracellular ROS production” value (C. albicans ATCC 10231 [10]; positive control at 1 mM) was “induced ROS production”.
C/C(=N\NC(=N)N)c1ccc(-c2ccc(/C(C)=N/NC(=N)N)cc2)cc1.Cl.Cl [Compound 4A] gave an MIC (E. coli MC1061) of 26.5 µg/mL.
For Cl.N#Cc1ccc(N/N=C/c2ccc(-c3ccc(/C=N/NC(=N)N)cc3)cc2)cc1 [Compound 7Ae], the MIC (E. coli MC1061) was 26.1 to 52.2 µg/mL.
C[C@@H]1[C@H](O)[C@@H](C)/C=C/C=C/C=C/C=C/C=C/C=C/C=C/[C@H](O[C@@H]2O[C@H](C)[C@@H](O)[C@H](N)[C@@H]2O)C[C@@H]2O[C@](O)(C[C@@H](O)C[C@@H](O)[C@H](O)CC[C@@H](O)C[C@@H](O)CC(=O)O[C@H]1C)C[C@H](O)[C@H]2C(=O)O [AmB, amphotericin B] gave an MIC (C. albicans ATCC 90819) of 2 µg/mL (≈ 2.16 µM) and an MIC (C. albicans ATCC 64124) of 2 to 3.9 µg/mL (≈ 2.16 to 4.22 µM).
